Legend:
human NHE-3 = biological target: T1, human NHE-3 (Homo sapiens, UniProt P48764); experiment: Cell-based assay of NHE-3 activity (human NHE3 inhibition assay); details: OK cells with human NHE-3 gene, BCECF pH dye, 0-30 μM test compound
T1 construct: expressed in transfected cells; host or cells: Opossum kidney (OK) cells (ATCC), transfected by electroporation
T1 sequence (P48764 26-834): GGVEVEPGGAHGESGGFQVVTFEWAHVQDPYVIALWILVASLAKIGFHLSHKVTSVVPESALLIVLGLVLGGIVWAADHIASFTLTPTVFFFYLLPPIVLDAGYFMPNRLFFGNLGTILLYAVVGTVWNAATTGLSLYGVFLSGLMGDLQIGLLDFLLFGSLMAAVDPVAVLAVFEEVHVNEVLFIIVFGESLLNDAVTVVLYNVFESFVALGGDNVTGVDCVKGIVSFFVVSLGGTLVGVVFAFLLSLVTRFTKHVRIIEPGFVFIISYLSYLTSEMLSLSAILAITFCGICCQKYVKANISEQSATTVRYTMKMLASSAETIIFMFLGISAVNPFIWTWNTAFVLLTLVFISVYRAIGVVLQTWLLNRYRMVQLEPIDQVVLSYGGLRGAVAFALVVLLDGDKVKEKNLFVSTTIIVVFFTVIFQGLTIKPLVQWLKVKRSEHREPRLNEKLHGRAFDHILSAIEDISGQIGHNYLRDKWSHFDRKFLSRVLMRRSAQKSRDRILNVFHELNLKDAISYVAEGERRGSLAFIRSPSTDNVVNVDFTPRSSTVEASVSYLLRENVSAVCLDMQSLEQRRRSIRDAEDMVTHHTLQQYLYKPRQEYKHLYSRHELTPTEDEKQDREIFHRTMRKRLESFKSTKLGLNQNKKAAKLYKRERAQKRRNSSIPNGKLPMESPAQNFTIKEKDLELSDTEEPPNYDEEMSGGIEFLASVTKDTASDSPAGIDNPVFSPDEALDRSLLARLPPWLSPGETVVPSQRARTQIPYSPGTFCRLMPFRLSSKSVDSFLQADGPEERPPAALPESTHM
Procedure, shortened: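 Opossum kidney cells electroporated with rat or human NHE-3, loaded with 5 μM BCECF-AM in NH4Cl-HEPES pH 7.4 for 30 min at RT, then acidified 10 min in Na+-free choline HEPES. Na+-dependent pH recovery rates from BCECF fluorescence, averaged over ≥2 replicates, gave pIC50.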

Fecal recovery = assay type: in vivo, Sprague Dawley rats; details: male, Sprague-Dawley, faeces; rat, 1 mg/kg oral gavage, collection time 48 h
Description: Three male Sprague Dawley rats were administered 1 mg/kg test compound by oral gavage. Feces were collected from study animals from 0-48 or 0-72 hours after dosing, dried by lyophilization, and homogenized. Replicate aliquots of 40-60 mg each were subjected to extraction/protein precipitation with 7:1 acetonitrile:water and centrifuged. Supernatants were diluted 1:10 in 50:50 acetonitrile:water prior to analysis by LC-MS/MS. Compound concentrations, determined by interpolation from a standard calibration curve prepared in blank feces matrix, were converted to the percentage of dosed material recovered by taking into account the total collected fecal matter. The percent recovery for each rat was reported as the mean of the calculations from replicate samples. The overall percent recovery (Fecal Recovery [%]) was reported as the mean percent recovery from three rats. Accurate quality control sample recoveries were confirmed in each run, and extraction efficiency was periodically verified.

Rat NHE-3 = biological target: T2, Rat NHE-3 (Rattus norvegicus, UniProt P26433); experiment: Cell-based assay of NHE-3 activity (persistent inhibition, after washout); details: OK cells with rat NHE-3 gene, 60 min incubation, recovery initiated 40 min after compound washout
T2 construct: expressed in transfected cells; host or cells: Opossum kidney (OK) cells (ATCC), transfected by electroporation
T2 sequence (P26433 29-831): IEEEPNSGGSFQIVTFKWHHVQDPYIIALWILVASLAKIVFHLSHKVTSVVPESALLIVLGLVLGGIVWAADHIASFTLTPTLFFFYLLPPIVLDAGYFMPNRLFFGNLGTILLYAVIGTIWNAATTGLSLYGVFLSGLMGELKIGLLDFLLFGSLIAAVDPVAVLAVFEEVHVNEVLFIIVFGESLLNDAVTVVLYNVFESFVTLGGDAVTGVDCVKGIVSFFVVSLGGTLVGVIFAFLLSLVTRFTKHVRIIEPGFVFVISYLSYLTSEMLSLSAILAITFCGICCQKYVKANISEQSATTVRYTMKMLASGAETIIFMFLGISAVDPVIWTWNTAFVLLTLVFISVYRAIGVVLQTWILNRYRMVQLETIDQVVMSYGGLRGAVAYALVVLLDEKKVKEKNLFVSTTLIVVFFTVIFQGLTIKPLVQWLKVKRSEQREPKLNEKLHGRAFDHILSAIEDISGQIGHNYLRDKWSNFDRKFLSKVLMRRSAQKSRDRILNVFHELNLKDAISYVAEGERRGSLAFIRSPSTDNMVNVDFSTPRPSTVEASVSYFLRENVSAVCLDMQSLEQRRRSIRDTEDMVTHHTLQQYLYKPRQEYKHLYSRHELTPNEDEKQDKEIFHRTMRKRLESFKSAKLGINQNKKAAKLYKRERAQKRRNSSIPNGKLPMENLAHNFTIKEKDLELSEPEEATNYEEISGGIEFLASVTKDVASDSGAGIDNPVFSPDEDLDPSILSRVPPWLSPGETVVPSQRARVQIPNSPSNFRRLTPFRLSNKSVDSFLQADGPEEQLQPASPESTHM
Procedure, shortened: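 OK cells transiently expressing rat NHE-3 were exposed to 0-30 μM compound in NaCl-HEPES pH 7.4 for 60 min, then washed free of drug before NH4Cl/BCECF-AM loading and acid-loading in Na+-free choline buffer. Na+-dependent pH recovery rates (mean of ≥2 replicates) gave pIC50.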

## CN1Cc2c(Cl)cc(Cl)cc2[C@H](c2cccc(S(=O)(=O)NCCOCCOCCNC(=O)NCCCN(CCCNC(=O)NCCOCCOCCNS(=O)(=O)c3cccc([C@@H]4CN(C)Cc5c(Cl)cc(Cl)cc54)c3)CCCNC(=O)NCCOCCOCCNS(=O)(=O)c3cccc([C@@H]4CN(C)Cc5c(Cl)cc(Cl)cc54)c3)c2)C1 [Example 43, (S)—N,N′-(15-(1-(3-((S)-6,8-dichloro-2-methyl-1,2,3,4-tetrahydroisoquinolin-4-yl)phenylsulfonamido)-10-oxo-3,6-dioxa-9,11-diazatetradecan-14-yl)-10,20-dioxo-3,6,24,27-tetraoxa-9,11,15,19,21-pentaazanonacosane-1,29-diyl)bis(3-((S)-6,8-dichloro-2-methyl-1,2,3,4-tetrahydroisoquinolin-4-yl)benzenesulfonamide)]
Human NHE-3; read-out: Human NHE3 pIC50 (converted)
  IC50: < 100 nM
Fecal recovery
  dose excreted: 53.8%
Rat NHE-3; read-out: Rat NHE3 pIC50 (persistent) (converted)
  IC50: < 100 nM

## CN1Cc2c(Cl)cc(Cl)cc2[C@H](c2cccc(S(=O)(=O)NCCOCCOCCN(C)C(=O)NCCCN(CCCNC(=O)N(C)CCOCCOCCNS(=O)(=O)c3cccc([C@@H]4CN(C)Cc5c(Cl)cc(Cl)cc54)c3)CCCNC(=O)N(C)CCOCCOCCNS(=O)(=O)c3cccc([C@@H]4CN(C)Cc5c(Cl)cc(Cl)cc54)c3)c2)C1 [Example 55]
Human NHE-3
  Human NHE3 pIC50: C (C NHE3 pIC50 > 7)
Fecal recovery
  dose excreted: 64.6%
Rat NHE-3
  Rat NHE3 pIC50 (persistent): C (C NHE3 pIC50 > 7)

## CN1Cc2c(Cl)cc(Cl)cc2[C@H](c2cccc(S(=O)(=O)NCCOCCOCCNC(=O)NCCCC(N)(CCCNC(=O)NCCOCCOCCNS(=O)(=O)c3cccc([C@@H]4CN(C)Cc5c(Cl)cc(Cl)cc54)c3)CCCNC(=O)NCCOCCOCCNS(=O)(=O)c3cccc([C@@H]4CN(C)Cc5c(Cl)cc(Cl)cc54)c3)c2)C1 [Example 62]
Human NHE-3
  Human NHE3 pIC50: C (C NHE3 pIC50 > 7)
Fecal recovery
  dose excreted: 81.5%
Rat NHE-3
  Rat NHE3 pIC50 (persistent): C (C NHE3 pIC50 > 7)

## CN1Cc2c(Cl)cc(Cl)cc2[C@H](c2cccc(S(=O)(=O)NCCOCCOCCNC(=O)NCCCC(CCCNC(=O)NCCOCCOCCNS(=O)(=O)c3cccc([C@@H]4CN(C)Cc5c(Cl)cc(Cl)cc54)c3)(CCCNC(=O)NCCOCCOCCNS(=O)(=O)c3cccc([C@@H]4CN(C)Cc5c(Cl)cc(Cl)cc54)c3)NC(=O)NC[C@H](O)[C@@H](O)[C@H](O)[C@H](O)CO)c2)C1 [Example 65]
Human NHE-3
  Human NHE3 pIC50: C (C NHE3 pIC50 > 7)
Fecal recovery
  dose excreted: 112%
Rat NHE-3
  Rat NHE3 pIC50 (persistent): C (C NHE3 pIC50 > 7)

From patent US10385024B2, “Compounds and methods for inhibiting NHE-mediated antiport in the treatment of disorders associated with fluid retention or salt overload and gastrointestinal tract disorders” (Ardelyx, Inc., priority 2012, dated 2019)
